Measurements published in patent US9790221B2, “Heteroaryl compounds as IRAK inhibitors and uses thereof” (Merck Patent GmbH, priority 2014, dated 2017).
Structures can show the parent of a compound that is named as a salt.

What was measured:
[1] = target: IRAK1 (His-TEV-IRAK1 (194-712)) (Homo sapiens (Human), UniProt P51617); assay: IRAK1 enzymatic assay; assay type: biochemical
Outline: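 Recombinant His-TEV-IRAK1 (194-712), 15 ng/well, autophosphorylation with 1 μM ATP plus [33P]ATP, 3 h at 30° C in Hepes pH 7.0 buffer with MgCl2, DTT, EGTA, BSA and Triton; compounds from 20 µM to 1 nM. The reaction was stopped with EDTA, and radioactivity was counted in streptavidin FlashPlates.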

IRAK4 = IRAK4 (Homo sapiens (Human), UniProt Q9NWZ3); assay: IRAK4 enzymatic assay; assay type: biochemical
IRAK4, sequence (Q9NWZ3 whole entry): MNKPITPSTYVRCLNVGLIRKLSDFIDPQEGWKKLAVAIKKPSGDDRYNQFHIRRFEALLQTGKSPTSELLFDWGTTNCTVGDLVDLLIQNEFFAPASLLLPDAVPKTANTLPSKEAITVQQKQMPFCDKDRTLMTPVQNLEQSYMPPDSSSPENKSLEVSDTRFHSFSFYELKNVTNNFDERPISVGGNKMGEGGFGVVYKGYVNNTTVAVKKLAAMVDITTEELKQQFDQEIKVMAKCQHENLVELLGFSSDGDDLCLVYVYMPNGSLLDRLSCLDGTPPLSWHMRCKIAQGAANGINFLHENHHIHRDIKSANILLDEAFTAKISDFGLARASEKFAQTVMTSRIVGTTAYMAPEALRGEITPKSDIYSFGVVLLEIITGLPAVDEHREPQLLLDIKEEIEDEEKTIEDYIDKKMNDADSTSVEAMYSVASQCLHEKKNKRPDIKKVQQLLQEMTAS
Outline: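 Recombinant His-TEV-IRAK4 (20 ng/well) phosphorylating biotinylated STK1 peptide (300 nM) with 2 μM ATP plus [^33P]ATP, 3 h at 30° C in pH 7.0 Hepes buffer with Mg2+ and Mn2+. Compounds 20 µM to 1 nM; EDTA stop, radioactivity captured on streptavidin FlashPlates.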

[2] = system: TLR7 induced IL-6 secretion in human mononuclear cells (PBMC's); assay: TLR7 induced IL-6 in human PBMC's; assay type: cell-based; details: Homo sapiens, PBMC, read-out: TLR7 induced IL-6 secretion in hPBMC's (IC50)
Outline: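 Fresh or frozen healthy-donor PBMCs preincubated 30 min at 37° C. with compound (25 uM to 0.4 nM; vehicle 0.25% DMSO) in RPMI/10% HI-FBS. Stimulated with TLR7 ligand (2 uM) for 16-18 h at 37° C.; supernatant IL-6 measured by AlphaLISA.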

IRAK1 (His-TEV-IRAK1 (194-712)), sequence (P51617 194-712): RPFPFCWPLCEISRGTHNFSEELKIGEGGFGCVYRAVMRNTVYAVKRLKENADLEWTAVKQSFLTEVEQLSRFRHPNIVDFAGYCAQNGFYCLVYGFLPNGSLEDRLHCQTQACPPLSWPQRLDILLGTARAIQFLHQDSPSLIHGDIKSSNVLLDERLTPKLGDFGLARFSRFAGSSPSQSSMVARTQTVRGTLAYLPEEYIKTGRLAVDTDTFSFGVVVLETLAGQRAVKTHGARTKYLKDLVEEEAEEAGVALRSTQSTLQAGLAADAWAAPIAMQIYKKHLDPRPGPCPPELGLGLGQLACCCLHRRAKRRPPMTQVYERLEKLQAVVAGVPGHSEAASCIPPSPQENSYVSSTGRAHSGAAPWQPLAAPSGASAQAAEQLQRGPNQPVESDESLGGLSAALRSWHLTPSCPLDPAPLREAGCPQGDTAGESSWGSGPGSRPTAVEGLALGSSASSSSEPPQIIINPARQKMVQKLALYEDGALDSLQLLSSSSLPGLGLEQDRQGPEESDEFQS

IC50 [1] [µM] | IC50 (IRAK4) [µM] | Compound | IC50 [2] [µM]
1 to 5 | < 0.1 | Cn1cc(-c2cccc(-c3ncc(-c4cnn([C@H]5CC[C@]6(CCC(=O)N6C)CC5)c4)c(NCC4CCNCC4)n3)c2)cn1 [Example 86, 1-Methyl-8-(4-{2-[3-(1-methyl-1H-pyrazol-4-yl)-phenyl]-4-[(piperidin-4-ylmethyl)-amino]-pyrimidin-5-yl}-pyrazol-1-yl)-1-aza-spiro[4.5]decan-2-one Hydrochloride] | > 5
1 to 5 | < 0.1 | CN1CCC(CNc2nc(-c3cccc(-c4cnn(C)c4)c3)ncc2-c2cnn([C@H]3CC[C@]4(CCC(=O)N4C)CC3)c2)CC1 [Example 87, 1-Methyl-8-(4-{4-[(1-methyl-piperidin-4-ylmethyl)-amino]-2-[3-(1-methyl-1H-pyrazol-4-yl)-phenyl]-pyrimidin-5-yl}-pyrazol-1-yl)-1-aza-spiro[4.5]decan-2-one] | 1 to 5
0.1 to 1 | < 0.1 | Cn1cc(-c2cccc(-c3ncc(-c4ccn(C)n4)c(NC4(CO)COC4)n3)c2)cn1 [Example 93] | 0.1 to 1
0.1 to 1 | < 0.1 | Cn1cc(-c2cccc(-c3ncc(-c4ccn(C)n4)c(NCCCCO)n3)c2)cn1 [Example 97] | 1 to 5
0.1 to 1 | < 0.1 | Cn1cc(-c2cccc(-c3ncc(-c4ccn(C)n4)c(NC4CC(CN)(CCl)C4)n3)c2)cn1 (stereo not drawn) [Example 99] | 0.1 to 1
1 to 5 | < 0.1 | Cn1cc(-c2cccc(-c3ncc(-c4cnn(C)c4)c(NCCCCO)n3)c2)cn1 [Example 101] | 0.1 to 1
1 to 5 | 0.1 to 1 | Cn1cc(-c2cccc(-c3ncc(-c4cnn(C)c4)c(NCC4(O)CCNCC4(C)C)n3)c2)cn1 (stereo not drawn) [Example 112] | 1 to 5
> 5 | 0.1 to 1 | Cn1cc(-c2cccc(-c3ncc(-c4ccn(C)n4)c(NCC4CNCCO4)n3)c2)cn1 (stereo not drawn) [Example 115] | 0.1 to 1
1 to 5 | < 0.1 | Cn1cc(-c2cccc(-c3ncc(-c4cnn(C)c4)c(OCC4CCCO4)n3)c2)cn1 (stereo not drawn) [Example 118] | 1 to 5
1 to 5 | 0.1 to 1 | Cn1cc(-c2cccc(-c3ncc(-c4ccn(C)n4)c(NC4CCOC4)n3)c2)cn1 (stereo not drawn) [Example 119] | > 5
0.1 to 1 | < 0.1 | Cn1cc(-c2cccc(-c3ncc(-c4cnn(C)c4)c(NCC4CCCC(O)C4)n3)c2)cn1 (stereo not drawn) [Example 123] | 0.1 to 1
> 5 | 0.1 to 1 | Cn1cc(-c2cccc(-c3ncc(-c4ccn(C)n4)c(NC4CCCCNC4)n3)c2)cn1 (stereo not drawn) [Example 125] | 0.1 to 1
> 5 | < 0.1 | Cc1nnc(-c2cnc(-c3cccc(-c4cnn(C)c4)c3)nc2NCCN2CCS(=O)(=O)CC2)s1 [Example 127] | 0.1 to 1
0.1 to 1 | < 0.1 | Cc1nnc(-c2cnc(-c3cccc(-c4cnn(C)c4)c3)nc2NC2CCC(N)CC2)s1 (stereo not drawn) [Example 128] | 0.1 to 1
0.1 to 1 | < 0.1 | Cc1nnc(-c2cnc(-c3cccc(-c4cnn(C)c4)c3)nc2N[C@H]2CC[C@@H](NS(C)(=O)=O)CC2)s1 [Example 129] | 0.1 to 1
0.1 to 1 | < 0.1 | Cn1cc(-c2cccc(-c3ncc(-c4cnn(C)c4)c(NCCC(C)(C)O)n3)c2)cn1 [Example 135] | 0.1 to 1
0.1 to 1 | < 0.1 | Cn1cc(-c2cccc(-c3ncc(-c4cnn(C)c4)c(NCC4CCC(F)(F)CC4)n3)c2)cn1 [Example 136] | 1 to 5
0.1 to 1 | < 0.1 | Cn1cc(-c2cccc(-c3ncc(-c4cnn(C)c4)c(NC4CCOCC4)n3)c2)cn1 [Example 137] | 0.1 to 1
1 to 5 | < 0.1 | Cn1cc(-c2cccc(-c3ncc(-c4ccn(C)n4)c(NC4CCOCC4)n3)c2)cn1 [Example 138] | 1 to 5
1 to 5 | 0.1 to 1 | CN(CC1CC(F)(F)C1)c1nc(-c2cccc(-c3cnn(C)c3)c2)ncc1-c1cnn(C)c1 [Example 141] | 1 to 5

More lines, now with the values behind:

Compound | IC50 [1] [µM] | IC50 (IRAK4) [µM] | IC50 [2] [µM]
Cn1cc(-c2cccc(-c3ncc(-c4cnn(C)c4)c(NCC4(O)COC4)n3)c2)cn1 [Example 52] | 0.1 to 1 | < 0.1 | 1 to 5
Cn1cc(-c2cccc(-c3ncc(-c4cnn(C)c4)c(NCC4(CO)CCC4)n3)c2)cn1 [Example 53] | 0.1 to 1 | < 0.1 | 1 to 5
Cn1cc(-c2cccc(-c3ncc(-c4cnn(C)c4)c(NC[C@H](O)CO)n3)c2)cn1 [Example 54] | 0.1 to 1 | 0.1 to 1 | 1 to 5
Cn1cc(-c2cccc(-c3ncc(-c4cnn(C)c4)c(NCCN4CCS(=O)(=O)CC4)n3)c2)cn1 [Example 55] | 0.1 to 1 | < 0.1 | 1 to 5
Cn1cc(-c2cccc(-c3ncc(-c4cnn(C)c4)c(NC[C@@H](O)CO)n3)c2)cn1 [Example 56] | > 5 | < 0.1 | 1 to 5
CC(=O)NCCNc1nc(-c2cccc(-c3cnn(C)c3)c2)ncc1-c1cnn(C)c1 [Example 57] | 0.1 to 1 | 0.1 to 1 | > 5
Cn1cc(-c2cccc(-c3ncc(-c4cnn(C)c4)c(N[C@H]4CCC(=O)NC4)n3)c2)cn1 [Example 60] | 1 to 5 | 0.1 to 1 | 1 to 5
Cn1cc(-c2cccc(-c3ncc(-c4cnn(C)c4)c(N[C@H]4C[C@@H](N)C4)n3)c2)cn1 [Example 62] | 1 to 5 | 0.1 to 1 | 1 to 5
Cn1cc(-c2cccc(-c3ncc(-c4cnn(C)c4)c(NCC4COC4)n3)c2)cn1 [Example 63] | 0.1 to 1 | < 0.1 | 1 to 5
Cn1cc(-c2cccc(-c3ncc(-c4cnn(C)c4)c(NC4CC5(CC(N)C5)C4)n3)c2)cn1 (stereo not drawn) [Example 65] | 0.1 to 1 | < 0.1 | 0.1 to 1
Cn1cc(-c2cccc(-c3ncc(-c4cnn(C)c4)c(NC45CCC(N)(C4)C5)n3)c2)cn1 [Example 66] | < 0.1 | < 0.1 | 0.1 to 1
Cn1cc(-c2cccc(-c3ncc(-c4cnn(C)c4)c(NCC4CCNC(=O)C4)n3)c2)cn1 (stereo not drawn) [Example 76] | 1 to 5 | 0.1 to 1 | > 5
Cn1cc(-c2cccc(-c3ncc(-c4cnn(C)c4)c(NCC4[C@H]5CNC[C@@H]45)n3)c2)cn1 (stereo partly drawn) [Example 77] | > 5 | 0.1 to 1 | 1 to 5
Cn1cc(-c2cccc(-c3ncc(-c4ccn(C)n4)c(NCC4CC(F)(F)C4)n3)c2)cn1 [Example 81] | 1 to 5 | 0.1 to 1 | > 5
Cn1cc(-c2cccc(-c3ncc(-c4ccn(C)n4)c(NC[C@@H](O)CO)n3)c2)cn1 [Example 83] | 1 to 5 | 0.1 to 1 | 0.1 to 1
Cn1cc(-c2cccc(-c3ncc(-c4ccn(C)n4)c(NCCN4CCS(=O)(=O)CC4)n3)c2)cn1 [Example 84] | 1 to 5 | 0.1 to 1 | > 5
Cn1cc(-c2cccc(-c3ncc(-c4cnn(C)c4)c(NCCC4CCNC4)n3)c2)cn1 (stereo not drawn) [Example 85] | > 5 | 0.1 to 1 | 1 to 5
